Source: ChEMBL document CHEMBL6120969, “Distinctive Immune Signatures Driven by Structural Alterations in Desmuramylpeptide NOD2 Agonists” (J Med Chem, 2024)
Calls of active or inactive are those of the source. No cut-off for these calls is given here.

Tests used:
[1] = Cytotoxicity against human HEK-Blue hNOD2 cells assessed as metabolic activity at 10 uM incubated for 18 hes by MTT assay; format: toxicity, cell-based; details: hek-blue hnod2, 10 µM
[2] = system: PBMC; experiment: Cytotoxicity against human PBMC cells co-cultured with human K562 cells at 10 uM incubated for 4 hrs; format: functional, cell-based
Summary of the method: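 Statistics used one-way ANOVA with Dunnett's test on duplicate wells from three independent biological replicates. In 96-well plates, 4 × 10^5 human PBMCs per well were exposed to compounds at 10 μM for 18 h, with 0.1% DMSO as vehicle, and then to 1 × 10^4 CFSE-stained K562 cells per well (effector:target 40:1) for 4 h at 37 °C, 5% CO2. Killing was determined as the fraction of K562 cells staining for both CFSE and Sytox blue on an Attune NxT flow cytometer.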

[3] = system: PBMC; experiment: Immunomodulatory activity in human PBMC cells assessed as increase in IL-1beta level at 2 uM incubated for 18 hrs y flow cytometry analysis; format: functional, cell-based
Summary of the method: (§1)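 Human donor PBMCs were isolated with Ficoll-Paque, seeded at 1 × 10^6 cells/mL (500 μL) in 48-well plates, and exposed to compounds at 2 μM or to 0.1% DMSO vehicle without LPS for 18 h at 37 °C, 5% CO2. Cytokines in the cell-free supernatants were then quantified on a flow cytometer with the LEGENDplex Human Essential Immune Response Panel, read against the kit's recombinant standard curves. Data came from four independent replicates and were analysed by two-way ANOVA with Tukey's test.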

[4] = system: PBMC; experiment: Immunomodulatory activity in human PBMC cells assessed as increase in IFN-gamma level at 2 uM incubated for 18 hrs y flow cytometry analysis; format: functional, cell-based; summary of the method: as §1
[5] = Cytotoxicity against human PBMC cells at 10 uM incubated for 4 hrs; format: toxicity, cell-based
Summary of the method: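 Human PBMCs alone were exposed to compounds at 10 μM (vehicle 0.1% DMSO) in parallel with a K562 killing assay. They were then stained with Sytox blue dead cell stain and analysed on an Attune NxT flow cytometer with FlowJo. Direct cytotoxicity was read as Sytox blue-positive cells. Duplicates, three independent biological replicates; one-way ANOVA with Dunnett's test.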

[6] = system: PBMC; experiment: Immunomodulatory activity in human PBMC cells assessed as increase in IL-17A level at 2 uM incubated for 18 hrs y flow cytometry analysis; format: functional, cell-based; summary of the method: as §1
[7] = system: PBMC; experiment: Immunomodulatory activity in human PBMC cells assessed as increase in LPS-induced TNF-alpha level at 2 uM incubated for 18 hrs y flow cytometry analysis; format: functional, cell-based
[8] = system: PBMC; experiment: Immunomodulatory activity in human PBMC cells assessed as increase in LPS-induced IL-12p70 level at 2 uM incubated for 18 hrs y flow cytometry analysis; format: functional, cell-based
[9] = system: PBMC; experiment: Immunomodulatory activity in human PBMC cells assessed as increase in MCP-1 level at 2 uM incubated for 18 hrs y flow cytometry analysis; format: functional, cell-based; summary of the method: as §1
[10] = system: PBMC; experiment: Immunomodulatory activity in human PBMC cells assessed as increase in IL-8 level at 2 uM incubated for 18 hrs y flow cytometry analysis; format: functional, cell-based; summary of the method: as §1
[11] = system: PBMC; experiment: Immunomodulatory activity in human PBMC cells assessed as increase in IL-4 level at 2 uM incubated for 18 hrs y flow cytometry analysis; format: functional, cell-based; summary of the method: as §1
[12] = system: PBMC; experiment: Immunomodulatory activity in human PBMC cells assessed as increase in LPS-induced IFN-gamma level at 2 uM incubated for 18 hrs y flow cytometry analysis; format: functional, cell-based
[13] = system: PBMC; experiment: Immunomodulatory activity in human PBMC cells assessed as increase in LPS-induced IL-6 level at 2 uM incubated for 18 hrs y flow cytometry analysis; format: functional, cell-based
Summary of the method: (§2)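 With LPS at 10 ng/mL present, human donor PBMCs (1 × 10^6 cells/mL, 500 μL, 48-well plates) were incubated for 18 h at 37 °C, 5% CO2 with compounds at 2 μM or with 0.1% DMSO. Supernatant cytokines were then determined with a LEGENDplex multiplex panel read by flow cytometry against kit recombinant standards, and four independent replicates were assessed by two-way ANOVA with Tukey's test.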

[14] = system: PBMC; experiment: Immunomodulatory activity in human PBMC cells assessed as increase in IL-2 level at 2 uM incubated for 18 hrs y flow cytometry analysis; format: functional, cell-based; summary of the method: as §1
[15] = system: PBMC; experiment: Immunomodulatory activity in human PBMC cells assessed as increase in LPS-induced MCP-1 level at 2 uM incubated for 18 hrs y flow cytometry analysis; format: functional, cell-based; summary of the method: as §2
[16] = system: PBMC; experiment: Immunomodulatory activity in human PBMC cells assessed as increase in IL-12p70 level at 2 uM incubated for 18 hrs y flow cytometry analysis; format: functional, cell-based; summary of the method: as §1
[17] = system: PBMC; experiment: Immunomodulatory activity in human PBMC cells assessed as increase in TNF-alpha level at 2 uM incubated for 18 hrs y flow cytometry analysis; format: functional, cell-based; summary of the method: as §1
[18] = system: PBMC; experiment: Immunomodulatory activity in human PBMC cells assessed as increase in IL-10 level at 2 uM incubated for 18 hrs y flow cytometry analysis; format: functional, cell-based; summary of the method: as §1
[19] = system: PBMC; experiment: Immunomodulatory activity in human PBMC cells assessed as increase in LPS-induced IL-1beta level at 2 uM incubated for 18 hrs y flow cytometry analysis; format: functional, cell-based
[20] = system: PBMC; experiment: Immunomodulatory activity in human PBMC cells assessed as increase in TGF-beta1 level at 2 uM incubated for 18 hrs y flow cytometry analysis; format: functional, cell-based; summary of the method: as §1
[21] = system: PBMC; experiment: Immunomodulatory activity in human PBMC cells assessed as increase in LPS-induced IL-10 level at 2 uM incubated for 18 hrs y flow cytometry analysis; format: functional, cell-based; summary of the method: as §2
[22] = system: PBMC; experiment: Immunomodulatory activity in human PBMC cells assessed as increase in LPS-induced IP-10 level at 2 uM incubated for 18 hrs y flow cytometry analysis; format: functional, cell-based; summary of the method: as §2
[23] = system: PBMC; experiment: Immunomodulatory activity in human PBMC cells assessed as increase in IP-10 level at 2 uM incubated for 18 hrs y flow cytometry analysis; format: functional, cell-based; summary of the method: as §1
[24] = system: PBMC; experiment: Immunomodulatory activity in human PBMC cells assessed as increase in IL-6 level at 2 uM incubated for 18 hrs y flow cytometry analysis; format: functional, cell-based; summary of the method: as §1
[25] = Cytotoxicity against human PBMC cells at 10 uM incubated for 4 hrs in presence of MDP; format: toxicity, cell-based

CC/C=C\C/C=C\C/C=C\C/C=C\C/C=C\C/C=C\CCC(=O)Oc1ccc(/C=C/C(=O)NCC(=O)N[C@H](C(=O)N[C@H](CCC(=O)OCC)C(=O)OCC)C(C)C)cc1OC
Activity [1]: Non-toxic

CCOC(=O)CC[C@@H](NC(=O)[C@@H](NC(=O)CNC(=O)/C=C/c1cc(OC)c(O)c(OC)c1)C(C)C)C(=O)OCC
Activity [1]: Non-toxic

CCCCCC(CCCCC)C(=O)Oc1ccc(/C=C/C(=O)NCC(=O)N[C@H](C(=O)N[C@H](CCC(=O)OCC)C(=O)OCC)C(C)C)cc1OC
Activity [1]: Non-toxic

CCCCC/C=C\C/C=C\CCCCCCCC(=O)Oc1ccc(/C=C/C(=O)NCC(=O)N[C@H](C(=O)N[C@H](CCC(=O)OCC)C(=O)OCC)C(C)C)cc1OC
Activity [1]: Non-toxic

CCCCCC(C)C(=O)Oc1ccc(/C=C/C(=O)NCC(=O)N[C@H](C(=O)N[C@H](CCC(=O)OCC)C(=O)OCC)C(C)C)cc1OC (stereo partly specified)
Activity [1]: Non-toxic

CC/C=C\C/C=C\C/C=C\CCCCCCCC(=O)Oc1ccc(/C=C/C(=O)NCC(=O)N[C@H](C(=O)N[C@H](CCC(=O)OCC)C(=O)OCC)C(C)C)cc1OC
Activity [1]: Non-toxic

CCCCCCCC/C=C\CCCCCCCC(=O)Oc1ccc(/C=C/C(=O)NCC(=O)N[C@H](C(=O)N[C@H](CCC(=O)OCC)C(=O)OCC)C(C)C)cc1OC
Activity [1]: Non-toxic

CCCCCCCC(=O)Oc1ccc(/C=C/C(=O)NCC(=O)N[C@H](C(=O)N[C@H](CCC(=O)OCC)C(=O)OCC)C(C)C)cc1OC
Activity [1]: Non-toxic

CCCCCCCCCCCC(=O)Oc1ccc(/C=C/C(=O)NCC(=O)N[C@H](C(=O)N[C@H](CCC(=O)OCC)C(=O)OCC)C(C)C)cc1OC
Activity [2]: inactive
Activity [3]: Active
Activity [4]: Active
Activity [5]: Non-toxic
Activity [6]: Active
Activity [7]: Active
Activity [8]: Active
Activity [9]: Active
Activity [10]: Active
Activity [11]: Active
Activity [12]: Active
Activity [13]: Active
Activity [14]: Active
Activity [15]: Active
Activity [16]: Active
Activity [17]: Active
Activity [18]: Active
Activity [19]: Active
Activity [20]: Active
Activity [21]: Active
Activity [22]: Active
Activity [23]: Active
Activity [24]: Active

CCCCC(CC)C(=O)Oc1ccc(/C=C/C(=O)NCC(=O)N[C@H](C(=O)N[C@H](CCC(=O)OCC)C(=O)OCC)C(C)C)cc1OC (stereo partly specified)
Activity [1]: Non-toxic

CCCCCCCCCCCCCCCC(=O)Oc1ccc(/C=C/C(=O)NCC(=O)N[C@H](C(=O)N[C@H](CCC(=O)OCC)C(=O)OCC)C(C)C)cc1OC
Activity [1]: Non-toxic

CCCCC/C=C\C/C=C\C/C=C\CCCCC(=O)Oc1ccc(/C=C/C(=O)NCC(=O)N[C@H](C(=O)N[C@H](CCC(=O)OCC)C(=O)OCC)C(C)C)cc1OC
Activity [1]: Non-toxic

CCOC(=O)CC[C@@H](NC(=O)[C@@H](NC(=O)CNC(=O)/C=C/c1ccc(OC(=O)CCCC2CCCCC2)c(OC)c1)C(C)C)C(=O)OCC
Activity [1]: Non-toxic

CCOC(=O)[C@@H](CCC(=O)OCCN1CCOCC1)NC(=O)[C@@H](NC(=O)CNC(=O)/C=C/c1ccc(O)c(OC)c1)C(C)C
Activity [1]: Non-toxic

CCCCCCCCCCCCCCCCCC(=O)Oc1ccc(/C=C/C(=O)NCC(=O)N[C@H](C(=O)N[C@H](CCC(=O)OCC)C(=O)OCC)C(C)C)cc1OC
Activity [1]: Non-toxic

CCOC(=O)CC[C@@H](NC(=O)[C@@H](NC(=O)CNC(=O)/C=C/c1ccc(OC(=O)CCCCCCCCCCCCCO)c(OC)c1)C(C)C)C(=O)OCC
Activity [1]: Non-toxic

CCOC(=O)[C@@H](CCC(=O)NCCCNCCCCNCCCN)NC(=O)[C@@H](NC(=O)CNC(=O)/C=C/c1ccc(O)c(OC)c1)C(C)C
Activity [2]: inactive
Activity [3]: Active
Activity [4]: Active
Activity [5]: Non-toxic
Activity [6]: Active
Activity [7]: Active
Activity [8]: Active
Activity [9]: Active
Activity [1]: Non-toxic
Activity [10]: Active
Activity [11]: Active
Activity [25]: Non-toxic
Activity [12]: Active
Activity [13]: Active
Activity [14]: Active
Activity [15]: Active
Activity [16]: Active
Activity [17]: Active
Activity [18]: Active
Activity [19]: Active
Activity [20]: Active
Activity [21]: Active
Activity [22]: Active
Activity [23]: Active
Activity [24]: Active

CCCCCCC(CC)C(=O)Oc1ccc(/C=C/C(=O)NCC(=O)N[C@H](C(=O)N[C@H](CCC(=O)OCC)C(=O)OCC)C(C)C)cc1OC (stereo partly specified)
Activity [1]: Non-toxic

CCCCCC(CCC)C(=O)Oc1ccc(/C=C/C(=O)NCC(=O)N[C@H](C(=O)N[C@H](CCC(=O)OCC)C(=O)OCC)C(C)C)cc1OC (stereo partly specified)
Activity [1]: Non-toxic

CCCCCCCCCC(=O)Oc1ccc(/C=C/C(=O)NCC(=O)N[C@H](C(=O)N[C@H](CCC(=O)OCC)C(=O)OCC)C(C)C)cc1OC
Activity [1]: Non-toxic

CCCCC(CCCC)C(=O)Oc1ccc(/C=C/C(=O)NCC(=O)N[C@H](C(=O)N[C@H](CCC(=O)OCC)C(=O)OCC)C(C)C)cc1OC
Activity [1]: Non-toxic

CCCCCC(=O)Oc1ccc(/C=C/C(=O)NCC(=O)N[C@H](C(=O)N[C@H](CCC(=O)OCC)C(=O)OCC)C(C)C)cc1OC
Activity [1]: Non-toxic

CCCCCCCCCCCCCC(=O)Oc1ccc(/C=C/C(=O)NCC(=O)N[C@H](C(=O)N[C@H](CCC(=O)OCC)C(=O)OCC)C(C)C)cc1OC
Activity [1]: Non-toxic

CCOC(=O)[C@@H](CCC(=O)NCCCCN)NC(=O)[C@@H](NC(=O)CNC(=O)/C=C/c1ccc(O)c(OC)c1)C(C)C
Activity [1]: Non-toxic

CCOC(=O)[C@@H](CCC(=O)NCCCNCCCCN)NC(=O)[C@@H](NC(=O)CNC(=O)/C=C/c1ccc(O)c(OC)c1)C(C)C
Activity [1]: Non-toxic
